Molecular target: ATP-dependent translocase ABCB1 (Homo sapiens, UniProt P08183)
Assay: TP_TRANSPORTER: transepithelial transport in MDR1-expressing LLC-PK1 cells
Assay type: functional, cell-based
Settings: pig

Chain of ATP-dependent translocase ABCB1 (P08183 whole entry): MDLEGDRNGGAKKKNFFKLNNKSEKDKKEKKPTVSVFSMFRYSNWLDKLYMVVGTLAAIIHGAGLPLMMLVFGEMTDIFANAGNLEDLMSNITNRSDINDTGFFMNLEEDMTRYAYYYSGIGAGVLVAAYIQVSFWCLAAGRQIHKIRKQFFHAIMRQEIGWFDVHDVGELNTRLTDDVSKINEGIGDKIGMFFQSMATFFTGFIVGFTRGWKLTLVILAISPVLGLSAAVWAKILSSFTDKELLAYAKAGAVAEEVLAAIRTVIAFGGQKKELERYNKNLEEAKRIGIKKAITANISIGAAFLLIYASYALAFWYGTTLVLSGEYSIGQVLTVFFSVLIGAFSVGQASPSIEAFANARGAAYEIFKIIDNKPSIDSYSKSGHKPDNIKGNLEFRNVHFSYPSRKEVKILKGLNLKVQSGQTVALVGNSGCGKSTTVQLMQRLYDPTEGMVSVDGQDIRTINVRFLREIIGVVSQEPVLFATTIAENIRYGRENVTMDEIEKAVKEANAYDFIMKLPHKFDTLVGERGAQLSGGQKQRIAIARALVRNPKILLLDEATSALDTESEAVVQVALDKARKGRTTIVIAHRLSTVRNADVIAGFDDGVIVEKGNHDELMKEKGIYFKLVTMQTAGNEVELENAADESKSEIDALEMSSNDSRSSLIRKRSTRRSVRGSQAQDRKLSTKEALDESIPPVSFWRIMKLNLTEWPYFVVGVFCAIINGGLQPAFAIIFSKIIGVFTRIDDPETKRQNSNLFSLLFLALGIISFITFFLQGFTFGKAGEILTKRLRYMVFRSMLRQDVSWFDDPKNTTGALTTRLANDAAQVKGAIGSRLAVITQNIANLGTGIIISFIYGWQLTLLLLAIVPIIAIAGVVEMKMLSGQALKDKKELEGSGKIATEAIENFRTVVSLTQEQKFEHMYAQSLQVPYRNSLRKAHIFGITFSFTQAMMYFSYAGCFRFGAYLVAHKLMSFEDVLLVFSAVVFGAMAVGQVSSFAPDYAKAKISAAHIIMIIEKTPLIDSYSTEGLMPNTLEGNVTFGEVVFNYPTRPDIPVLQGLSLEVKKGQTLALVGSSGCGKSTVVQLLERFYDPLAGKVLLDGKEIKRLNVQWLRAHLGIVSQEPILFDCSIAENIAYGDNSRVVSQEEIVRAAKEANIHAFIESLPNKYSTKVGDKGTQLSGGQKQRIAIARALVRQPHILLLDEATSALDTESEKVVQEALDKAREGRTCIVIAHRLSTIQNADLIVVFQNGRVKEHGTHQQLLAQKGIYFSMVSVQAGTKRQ

Structure (SMILES)	Activity
CCn1nc(Cc2ccccc2)cc1C1CCN(Cc2ccc(C3(N(C)[C@@H](C(=O)O)C(C)C)CCCC3)cc2F)CC1	substrate [+]
CC[C@]1(O)C[C@@H]2CN(CCc3c([nH]c4ccccc34)[C@@](C(=O)OC)(c3cc4c(cc3OC)N(C)[C@H]3[C@@](O)(C(=O)OC)[C@H](OC(C)=O)[C@]5(CC)C=CCN6CC[C@]43[C@@H]65)C2)C1 [VINBLASTINE]	substrate [+]
